From paper PMC11945201, “Enhancing the Oral Bioavailability of Glutathione Using Innovative Analogue Approaches” (Pharmaceutics, 2025) come the findings set out here.

The test system of data set [1] is γ-glutamyl transferase (GGT). The data set is classed as in vitro ADME, equine. As to conditions: for % Degradation by GGT: horse, 100 μgmL^−1, pH 9. The protocol: Each compound and GSH (100 μgmL^−1, 0.0315 molL^−1) was added to each reaction vessel containing phosphate buffer solution (800 μL, pH 9.0). The reaction vessels were incubated at 37 °C with shaking for the entire duration of the experiment. Reaction was initiated by the addition of GGT enzyme solution (100 μL, 10 UmL^−1). […] The degradation rate of the novel compounds analysed by HPLC were compared with that of GSH. […] A GGT degradation less than 50% was considered resistance to GTT activity.

Data set [2] has as its system glutathione S-transferase (GST). The data set can be described thus: Glutathione S-transferase assay (CDNB conjugation, absorbance 340 nm). As to conditions: for activity/efficacy with GST enzyme (in words): qualitative analysis; for GST Activity > 50%: yes/no, compared to GSH, more than 50% considered retaining GST activity. The data set is classed as biochemical, equine. As to the method:
The degree of conjugation of GSH or novel compounds to a substrate catalysed by GST can be monitored […] by conjugation with the substrate 1-chloro-2,4-dinotrobenzene (CDNB) to a thiol group. Successful conjugation results in the formation of a S-DNB conjugate, which strongly absorbs at 340 nm.
A stock solution of GSH and novel compounds (0.0315 mmolL^−1) were prepared. GSH or novel compounds (26 µL) were added to a mixture of pH = 7.4 DPBS (170 µL), CDNB (2 µL, 100 mmolL^−1), and GST enzyme (2 µL, 25 UmL^−1) to initiate the reaction. The rate of increase in absorbance at 340 nm was monitored every minute over a 10 min period. The rate of increase in absorbance at 340 nm was calculated by the following equation (Equation (1)), where ΔA340 is the change in absorption at 340 nm per minute:(1) ΔA340=A340(final)–A340(initial)/t.
The rate of increase in absorption at 340 nm was correlated to the specific activity of GST using the following equation (Equation (2)):(2) ΔA340×V/εmM ×Venz=Specific activity of GST, where the extinction coefficient εmM for a 96-well plate of a path length of 0.5 cm is 5.3 mmolL^−1cm^−1; Venz is the volume of the GST enzyme sample used (2 µL); and V is the total volume used ([…]). […] A GST activity more than 50% was considered as retaining GST activity.

For data set [3], the system named is glutathione reductase (GR) and glutathione peroxidase (GPx). The data set can be described thus: Glutathione reductase and glutathione peroxidase coupled assay (NADPH, 340 nm). The data set is classed as biochemical, yeast (GR), bovine (GPx). As to conditions: for activity with GPx and GR enzymes (in words): qualitative analysis; for GT/GPx Activity > 50%: yes/no, more than 50% considered retaining GR and GPx activity. The protocol: The activity of GR can be measured by monitoring the rate of decrease in absorbance of its substrate, NADPH, which absorbs light of 340 nm in the presence of a second substrate, i.e., oxidised GSH. […] In the presence of peroxides, reduced GSH can be oxidised by the enzyme GPx while reducing the peroxide. […] The NADPH solution (10 μL, 5 mmolL^−1), GPx enzyme solution (10 μL, 0.25 UmL^−1), and GR enzyme solution (10 μL, 10 UmL^−1) were also added to the reaction mixture. The reaction was initiated by the addition of tBu-OOH (2 μL, 30 mmolL^−1), and the decrease in absorbance at 340 nm was recorded by a microplate reader every 10 secs for one minute. […] A GR and GPx activity more than 50% was considered as retaining GR and GPx activity.

Data set [4] is described as follows: UV rescue of UVA-irradiated fibroblast cells (MTT). The conditions noted are these: peptide 0.0325 mmolL^−1, 24 h, no UV, mean ± SD, n = 6, read-out: % Cell Viability (no UV). The class given is cell-based. As to the method: (§1) Fibroblast cells were seeded into 96-well plates at a density of 10,000 cells per well determined by cell counting. Cells were allowed to settle and attach for 24 h before the addition of peptides. The supernatant in each well was discarded, and the attached cells were washed using serum-free DMEM twice. One group of cells was exposed to UVA under a UV lamp for 1 h. A second group of cells was not exposed to UV irradiation. The supernatant was removed from each well of both groups and replaced with peptide (100 μL, 0.0325 mmolL^−1), which was then dissolved in Fluorobite^TM DMEM. Each plate, including 2 wells of both groups was also incubated with serum-free DMEM (positive control) and 2% Triton-X (negative control) for 24 h. The supernatant in each well of both groups was then discarded and the cells washed using PBS. MTT (100 μL, 6 mmolL^−1) that was dissolved in HBSS was then added to each well and incubated for 2 h for MTT conversion into formazan. The supernatant was then discarded, and the cells were washed using PBS to remove any residual MTT and formazan that were not attached to the cellular mitochondria. Formazan was dissolved in DMSO (50 μL), and the absorbance was measured on a microplate reader at a wavelength of 570 nm.

The subject of data set [5] is Fibroblast cells. The experiment in a line: UV rescue of UVA-irradiated fibroblast cells (MTT). The class given is cell-based. As to conditions: for cell viability versus untreated groups (in words): UV rescue; for % Cell Viability (with UV): UVA 1 h, then peptide 0.0325 mmolL^−1, 24 h. As to the method:
as §1

In data set [6] the test system is Caco-2, Fibroblast, and HT29-MTX-E12 cells. The experiment in a line: Cytotoxicity by MTT cell viability. The conditions noted are these: 24 h incubation, cell line not split in table (Caco-2, Fibroblast, HT29-MTX-E12), highest usable concentration 3.25 mmolL^−1. The data set is classed as cell-based. As to the method: All cell culture studies were conducted in aseptic conditions. Incubation was maintained at an atmosphere of 37.0 °C, 5% CO2, and 95% relative humidity. The caco-2 cells were grown in complete Dulbecco’s modified Eagle’s medium (DMEM), which was prepared by adding 10% foetal bovine serum (FBS), 1% penicillin-streptomycin (P-S), and 1% non-essential amino acids (NEAA) to sterile DMEM. Cells were cultured in T-25 and T-75 tissue culture flasks, and the medium was exchanged every 3 days until 90% confluence was reached. Cells were detached and subcultured with 0.25% Trypsin-EDTA. The suspended cell concentration was determined by cell counting.
Cytotoxicity was measured by measuring cell viability using MTT. Then, 90% confluent cells were detached by 0.25% trypsin-EDTA, which were then counted and seeded into sterile 96-well plates. Caco-2 cells were seeded into 96-well plates at a density of 100,000 cells per well and incubated for 24 h prior to the experiment. Fibroblast cells were seeded into 96-well plates at a density of 10,000 cells per well and incubated for 24 h prior to the experiment. HT-29 cells were seeded into 96-well plates at a density of 10,000 cells per well and incubated for 24 h prior to the experiment. The supernatant in each well were discarded and the attached cells were washed using serum-free Fluorobite^TM DMEM twice to remove any phenol red. The peptide, at concentrations of 10 mgmL^−1, 1 mgmL^−1, 0.1 mgmL^−1, 0.01 mgmL^−1, 0.001 mgmL^−1, and 0.0001 mgmL^−1 were dissolved in serum-free Fluorobite^TM DMEM. The total volume of sample in each well used was 100 μL. The cells were incubated with the peptide for 24 h. Cells were also incubated with serum-free DMEM (positive control) and 2% Triton-X (negative control) for 24 h. The supernatant in each well was then discarded and washed using serum-free Fluorobite^TM DMEM. MTT (100 μL, 1.2 mmolL^−1) dissolved in Fluorobite^TM DMEM was then added to each well and incubated for 2 h for MTT conversion into formazan. The supernatant was then discarded, and the cells were washed using Fluorobite^TM DMEM to remove any residual MTT and formazan that were not attached to cellular mitochondria. Formazan was dissolved in dimethyl sulfoxide (DMSO) (50 μL), and the absorbance was measured on a microplate reader at a wavelength of 570 nm. Cell viability was expressed as a percentage of the positive control and calculated as follows (where Aexp is the absorbance at 570 nm of the experimental group, Aneg is the absorbance at 570 nm of the negative control, and Acon is the cell viability of the positive control): Cell viability = (Aexp − Aneg)/(Acon − Aneg).

One may read the viability as a read-out of living cells in per cent, often relative to untreated cells. For `CN[C@@H](CCC(=O)N[C@@H](CS)C(=O)NCC(=O)O)C(=O)O` [Compound 1.71], in data set [1], the “% Degradation by GGT” value stood at 11.7%. Moreover, in data set [2], the “activity/efficacy with GST enzyme (in words)” value (“activity/efficacy” for short) is “loss of activity” and the “GST Activity > 50%” value is listed as “X (X: no)”. Moreover, in data set [3], the “activity with GPx and GR enzymes (in words)” value is “retention of activity”; the “GT/GPx Activity > 50%” value is “✔ (✔: yes)”. Moreover, in data set [4], the viability at 24 h, 0.0325 mmolL^−1 turned out to be 79.5 ± 10.2%. Besides, the “cell viability versus untreated groups (in words)” value in data set [5] is “significantly higher cell viability than the untreated groups”. The “% Cell Viability (with UV)” value in data set [5] (mean ± SD, n = 6) is recorded as 97.0 ± 5.5%.

Broadly, the IC50 is the midpoint of a concentration-inhibition curve. Lower therefore signals inhibition by little substance. On to `N[C@@H](CCC(=O)N[C@@H](CS)C(=O)NCC(=O)O)C(=O)O` [Compound 1.61], for which the “% Degradation by GGT” value in data set [1] stood at 100%. Also, the “GST Activity > 50%” value in data set [2] was “✔ (✔: yes)”. Further, the “GT/GPx Activity > 50%” value in data set [3] is “✔ (✔: yes)”. In data set [6], the 50% inhibitory concentration (IC50) is above 3.25 mM. In data set [5], the “cell viability versus untreated groups (in words)” value was “significantly higher cell viability than the untreated groups”. Moreover, the “% Cell Viability (with UV)” value in data set [5] (mean ± SD, n = 6) was determined as 69.0 ± 0.6%. Also, the “% Cell Viability (no UV)” value in data set [5] (peptide 0.0325 mmolL^−1, 24 h, no UV, mean ± SD, n = 6) is reported as 74.3 ± 2.0%.

Regarding `N[C@H](CCC(=O)N[C@@H](CS)C(=O)NCC(=O)O)C(=O)O` [Compound 1.63], in data set [1], the “GGT degradation compared to GSH (in words)” value is recorded as “less than half the rate of GGT degradation” and the “% Degradation by GGT” value turned out to be 72.7%. Moreover, in data set [2], the “activity/efficacy” value was “lost detoxification efficacy” and the “GST Activity > 50%” value is listed as “X (X: no)”. Also, in data set [3], the “activity with GPx and GR enzymes (in words)” value was “retained activity”; the “GT/GPx Activity > 50%” value is recorded as “✔ (✔: yes)”. The IC50 in data set [6] (Homo sapiens) was above 3.25 mM. The viability at 24 h, 0.0325 mmolL^−1 in data set [4] is 137 ± 16.1%. In data set [5], the “cell viability versus untreated groups (in words)” value was “significantly higher cell viability than the untreated groups”. For the same molecule, the “% Cell Viability (with UV)” value in data set [5] (mean ± SD, n = 6) is on record as 101.1 ± 5.2%.

`CN(CC(=O)O)C(=O)[C@H](CS)NC(=O)CC[C@H](N)C(=O)O` [Compound 1.65]: in data set [1], the “GGT degradation compared to GSH (in words)” value is “did not show a decrease in degradation” and the “% Degradation by GGT” value is 122.2%. Besides, in data set [2], the “activity/efficacy” value is “loss of activity” and the “GST Activity > 50%” value is reported as “X (X: no)”. Besides, in data set [3], the “activity with GPx and GR enzymes (in words)” value is listed as “retention of activity”; the “GT/GPx Activity > 50%” value is listed as “✔ (✔: yes)”. In addition, in data set [6] (Homo sapiens), the concentration for half-maximal inhibition (IC50) amounted to 0.984 mM. Besides, the viability at 24 h, 0.0325 mmolL^−1 in data set [4] was found to be 58.8%. Besides, the “cell viability versus untreated groups (in words)” value in data set [5] is “significantly higher cell viability than the untreated groups”. The “% Cell Viability (with UV)” value in data set [5] (mean ± SD, n = 6) turned out to be 69.3 ± 26.6%.

Regarding `N[C@H](CCC(=O)N[C@H](CS)C(=O)NCC(=O)O)C(=O)O` [Compound 1.64], in data set [1], the “GGT degradation compared to GSH (in words)” value is “less than half the rate of GGT degradation” and the “% Degradation by GGT” value was 60.2%. In data set [2], the “activity/efficacy” value is “retained the detoxification effectiveness” and the “GST Activity > 50%” value is “✔ (✔: yes)”. Further, in data set [3], the “activity with GPx and GR enzymes (in words)” value is “loss of activity”; the “GT/GPx Activity > 50%” value is listed as “X (X: no)”. This molecule also returned an IC50 in data set [6] (Homo sapiens) above 3.25 mM. The viability at 24 h, 0.0325 mmolL^−1 in data set [4] turned out to be 128 ± 7.9%. Besides, the “cell viability versus untreated groups (in words)” value in data set [5] is listed as “significantly higher cell viability than the untreated groups”. For the same molecule, the “% Cell Viability (with UV)” value in data set [5] (mean ± SD, n = 6) is 98.5 ± 7.1%.

As for `N[C@@H](CCC(=O)N[C@H](CS)C(=O)NCC(=O)O)C(=O)O` [Compound 1.62], in data set [1], the “GGT degradation compared to GSH (in words)” value was “less than half the rate of GGT degradation” and the “% Degradation by GGT” value was found to be 82.3%. In data set [2], the “activity/efficacy” value is reported as “lost detoxification efficacy” and the “GST Activity > 50%” value was “X (X: no)”. Moreover, in data set [3], the “activity with GPx and GR enzymes (in words)” value was “loss of activity”; the “GT/GPx Activity > 50%” value was “X (X: no)”. In addition, the IC50 in data set [6] (Homo sapiens) is above 3.25 mM. In addition, in data set [4], the viability at 24 h, 0.0325 mmolL^−1 is 112 ± 5.5%. In addition, in data set [5], the “cell viability versus untreated groups (in words)” value is on record as “significantly higher cell viability than the untreated groups”. Moreover, in data set [5] (mean ± SD, n = 6), the “% Cell Viability (with UV)” value was determined as 70.8 ± 5.7%.
